# Reference: patent publication US8470763B2, “Alpha-amino-N-substituted amides, pharmaceutical composition containing them and uses thereof” (Shanghai Institute of Materia Medica Chinese Academy of …, priority 2007, dated 2013)
# Legend:
# DU145 (Prostatic Cancer) = assay: SRB assay, DU145; assay type: cell-based; details: Homo sapiens, DU-145, 72 h, read-out: IC50 (μM) (mean ± SD)
# Method: (§1) Experimental method: The antineoplasmic activities in vitro of the compounds were determined by SRB assay. The detailed procedure was as follows. The cells in the logarithmic growth phase were inoculated on a 96-well microculture plate with a suitable density (100 μl/well), and allowed to attach overnight, followed by addition of the compound at different concentrations to be treated for 72 h. For each concentration, the test was carried out in triplicate wells, and included control wells containing the aqueous medium of normal saline and a blank well containing all medium without cells for zeroing. After cultured overnight, the cells were treated with the compound at different concentrations for 72 h. After the treatment, the culture medium was removed, and the cells were fixed with 10% (wt/vol) trichloroacetic acid (100 μL/well) at 4° C. for 1 h. The cells were then washed with distilled water for 5 times, and died at room temperature, followed by addition of a SRB solution (4 mg/mL, dissolved in 1% glacial acetic acid) at 100 μL/well. The cells were incubated and stained at room temperature for 15 min, then washed with 1% glacial acetic acid for 5 times to remove the uncombined SRB, and died at room temperature. 100 μL of 10 mM Tris solution was added in each well, and the Optical Density (OD) were measured at a wavelength of 560 nm on a VERSMax ELISA Reader (Molecule Devices). The growth inhibition of the compound against tumor cells was calculated according to the following equation: Growth inhibition (%)=(ODcontrol−ODtreated)/ODcontrol×100%.
# (§2) IC50 (the concentration of the sample compound that is required for 50% inhibition of cell growth) was calculated by using the Logit method based on the measurement, and each test was repeated for 3 times to calculate the mean value and standard deviation.
# HMEC (Others) = assay: SRB assay, HMEC; assay type: cell-based; details: Homo sapiens, 72 h, read-out: IC50 (μM) (mean ± SD)
# Method: as §1, §2
# [1] = system: human breast cancer cells MDA-MB-435 transplanted on nude mice; details: mouse, in vivo
# Method: Dosage: among 3 groups, the dosages of L538 were set at 5, 10 and 20 mg/kg as the high, middle and low dosages, respectively, administrating intravenously 3 times a week; while MMC was administrated intravenously at the first day whit a dosage of 5 mg/kg.
# Animals: BALB/CA nude mice, male, 40-45 days old, body weight: 18±1 g, provided by Shanghai Institute of Materia Medica, Chinese Academy of Sciences. […] Animal number in each group: 7 in negative control group, and 4 in administration group.
# The amount of inoculated cells was 5×10^6. After the transplanted tumor was formed by inoculation, it was used after passed for 3 generations in nude mice.
# Experimental procedure: tumor tissue in productive phase was cut into nubs of about 1.5 mm^3. Under sterile conditions, the nubs were inoculated subcutaneously in right axillary fossa of the nude mice. The diameters of the transplanted tumors on nude mice were measured by a vernier caliper. When the tumors grew up to 100-200 mm^3, the animals were divided randomly into groups. Mice in experimental groups were administered intravenously every other day. […] The total administration duration was 3 weeks. For the positive control, MMC, Mice were administered intravenously once at the first day of a week, and the total administration duration was 3 weeks. Mice in control groups were administrated physiologic saline in equivalent amount. The diameter of the tumor and weight of mice were measured twice a week. The equation for calculating the TV (tumor volume) was as follows: TV=½×a×b^2, • wherein, a is length and b is width. RTV (relative tumor volume) was calculated based on the measured results, and the equation thereof was as follows: RTV=Vt/V0 • wherein, V0 is the tumor volume measured when the mice were grouped (i.e. d0), and Vt is the tumor volume at each measurement. The evaluation index for the antitumor activity was the relative tumor proliferation rateT/C (%).
# The calculation equation was as follows: T/C(%)=(TRTV/CRTV)×100, • wherein, TRTV is the RTV of therapeutic Group and CRTV is RTV of negative control group.
# BEL-7402 (Liver Cancer) = assay: SRB assay, BEL-7402; assay type: cell-based; details: Homo sapiens, 72 h, read-out: IC50 (μM) (mean ± SD)
# Method: as §1, §2
# [2] = system: Hela uterine cervix cancer cells; assay: MTT assay, Hela cells; assay type: cell-based; details: Homo sapiens, 72 h, 1000 cells per well
# Method: The adhered MDA-MB-4355 cells in logarithmic growth phase, were digested by 0.05% trypsogen, counted and formulated into a cell suspension with a medium. After counted, the suspension was inoculated on a 96-well plate with 3000 cells and 100 μl medium per well. The inoculated 96-well plate was placed overnight in an incubator at 37 with 5% CO2 to allow the cells to adhere to the wall. On the next day, the administration of the drugs started. Before the administration, into some of the control wells, each was added 20 μl of the MTT solution (5 mg/ml) without removing the medium therein. After incubated for 3 h, the absorption at A550/690 was recorded as the initial cell concentration. For the drug wells, each was added into 100 μl of medium containing 2 μl of compound solution. For the control wells which use DMSO as background control, each was also added into 100 μl of medium containing 2 μl of DMSO. In addition, each experiment was carried out with adriamycin as the positive control. Subsequently, the 96-well plate was incubated in an incubator at 37 with 5% CO2 for 72 h. each compound was tested in triplicate wells (6 μl of compound solution was put into a sterilized eppendorf centrifuge tube, then 300 μl of medium was added and mixed well, and the mixture was distributed into 3 wells respectively), and at six concentrations which form a gradient. 3 days (72 h) later, 40 μl of MTT solution (5 mg/ml) was put into each well directly (without sucking off the medium therein), and the plate was incubated in the incubator for 3 h and then taken out. The liquid in each well was sucked off, and then 100 μl of DMSO was put into each well to dissolve the crystal completely with slight shake. The absorbance of the solution in each well was determined at 550/690 nm on an ELISA Reader as the cell density after treated with the compound. The growth inhibition of compound against breast cancer cells MDA-MB-435S was represented by the cell survival rate, and IC50 was determined from the profile of cell survival rate vs compound concentration. The calculating formula was as follows: cell survival rate=[(cells+compound)A550/690/(cells+compound vector DMSO)A550/690]×100%
# MDA-MB-435S: human breast cancer cells; HCT116: colon cancer cells; A549: lung adenocarcinoma cells; Hela: uterine cervix cancer cells.
# The tests were performed in the same manner as that of experimental example 1, except that for Hela cells, after counted, each well was seeded with 1000 cells and 100 μl of medium on a 96-well plate.
# [3] = system: MDA-MB-435 (Breast Cancer); assay: SRB assay, MDA-MB-435; assay type: cell-based; details: Homo sapiens, 72 h, read-out: IC50 (μM) (mean ± SD)
# Method: as §1, §2
# 7404 (Liver Cancer) = assay: SRB assay, 7404; assay type: cell-based; details: 72 h, read-out: IC50 (μM) (mean ± SD)
# Method: as §1, §2
smiles,measurement,setting,value
CO[C@@H](C(=O)N[C@@H](C)C(=O)NCCOC(=O)C12CC3CC(CC(C3)C1)C2)[C@H](O)[C@@H](O)[C@H](O)/C=C/C(C)(C)C [Compound L538],IC50,DU145 (Prostatic Cancer),0.14 ± 0.04 µM
same,IC50,HMEC (Others),0.17 ± 0.06 µM
same,dead nude mice,[1],none of the experimental groups had dead nude mice
same,IC50,BEL-7402 (Liver Cancer),0.37 ± 0.27 µM
same,IC50,[2],91 ± 19 nM
same,IC50,[3],0.09 ± 0.01 µM
same,IC50,7404 (Liver Cancer),> 20 µM
